Data on 15 compounds can be found in PubChem BioAssay AID248 (DTP/NCI, 2004).

Where “and” joins values, the source holds several entries; their conditions need not be identical. Identical values can stand only once. Toxic doses and inconclusive results are not listed.

The test concerns L1210 leukemia ip in BDF1 mice, survival T/C. In words: NCI In Vivo Anticancer Drug Screen. Data for tumor model L1210 Leukemia (intraperitoneal) in B6D2F1 (BDF1) mice. The settings on record: endpoint: mean survival time, higher = longer survival. The essentials: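 Antitumor effect is assessed in tumor-bearing animals. Survival in the compound arm is compared with a vehicle-dosed control arm and expressed as their quotient.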

Setting [1] is: dose: 100.0 mg/kg/injection, schedule: Q01DX009 (ip), vehicle: Klucel (hydroxypropylcellulose) (HPC).
[2] abbreviates: dose: 100.0 mg/kg/injection, schedule: Q04DX003 (ip), vehicle: Klucel (hydroxypropylcellulose) (HPC).
The mark [3] stands for this setting: dose: 200.0 mg/kg/injection, schedule: Q01DX009 (ip), vehicle: Klucel (hydroxypropylcellulose) (HPC).
[4] abbreviates: dose: 200.0 mg/kg/injection, schedule: Q04DX003 (ip), vehicle: Klucel (hydroxypropylcellulose) (HPC).
Where [5] appears, read: dose: 400.0 mg/kg/injection, schedule: Q01DX009 (ip), vehicle: Klucel (hydroxypropylcellulose) (HPC).
Setting [6] is: dose: 400.0 mg/kg/injection, schedule: Q04DX003 (ip), vehicle: Klucel (hydroxypropylcellulose) (HPC).
[7] abbreviates: dose: 100.0 mg/kg/injection, schedule: Q01DX009 (ip), vehicle: saline with Tween-80.
[8] abbreviates: dose: 200.0 mg/kg/injection, schedule: Q01DX009 (ip), vehicle: saline with Tween-80.
Where [9] appears, read: dose: 100.0 mg/kg/injection, schedule: Q04DX003 (ip), vehicle: saline with Tween-80.
Setting [10] is: dose: 200.0 mg/kg/injection, schedule: Q04DX003 (ip), vehicle: saline with Tween-80.
The mark [11] stands for this setting: dose: 400.0 mg/kg/injection, schedule: Q01DX009 (ip), vehicle: saline with Tween-80.
The mark [12] stands for this setting: dose: 400.0 mg/kg/injection, schedule: Q04DX003 (ip), vehicle: saline with Tween-80.
[13] abbreviates: dose: 100.0 mg/kg/injection, schedule: Q04DX002 (ip), vehicle: saline with Tween-80.
Where [14] appears, read: dose: 200.0 mg/kg/injection, schedule: Q04DX002 (ip), vehicle: saline with Tween-80.
Where [15] appears, read: dose: 400.0 mg/kg/injection, schedule: Q04DX002 (ip), vehicle: saline with Tween-80.
Setting [16] is: dose: 50.0 mg/kg/injection, schedule: Q01DX009 (ip), vehicle: Klucel (hydroxypropylcellulose) (HPC).
Where [17] appears, read: dose: 100.0 mg/kg/injection, schedule: Q01DX009 (ip), vehicle: saline.
The mark [18] stands for this setting: dose: 200.0 mg/kg/injection, schedule: Q01DX009 (ip), vehicle: saline.
Setting [19] is: dose: 100.0 mg/kg/injection, schedule: Q04DX002 (ip), vehicle: Klucel (hydroxypropylcellulose) (HPC).
[20] abbreviates: dose: 200.0 mg/kg/injection, schedule: Q04DX002 (ip), vehicle: Klucel (hydroxypropylcellulose) (HPC).
Setting [21] is: dose: 400.0 mg/kg/injection, schedule: Q04DX002 (ip), vehicle: Klucel (hydroxypropylcellulose) (HPC).

Turning to `CCOP(=S)(OCC)SCc1c(C)c(C)c(CSP(=S)(OCC)OCC)c(C)c1C`, the T/C by setting is: under setting [1], 95 % of control; under setting [2], 103 % of control; under setting [3], 103 % of control; under setting [4], 101 % of control; under setting [5], 93 % of control; under setting [6], 105 % of control.

For the compound `O=C(COc1ccc(Cl)cc1Cl)Nc1ncn[nH]1`, the T/C reads like this: (dose: 100.0 mg/kg/injection, schedule: Q01DX001 (ip), vehicle: Klucel (hydroxypropylcellulose) (HPC)) 101 % of control; (dose: 200.0 mg/kg/injection, schedule: Q01DX001 (ip), vehicle: Klucel (hydroxypropylcellulose) (HPC)) 104 % of control; (dose: 400.0 mg/kg/injection, schedule: Q01DX001 (ip), vehicle: Klucel (hydroxypropylcellulose) (HPC)) 95 % of control.

With `c1ccc(-c2[nH]c(-c3ccccc3)c(-c3ccccc3)c2-c2ccccc2)cc1`, the T/C is 102 % of control (dose: 50.0 mg/kg/injection, schedule: Q01DX009 (ip), vehicle: saline with Tween-80); 95 % of control under setting [7]; 95 % of control under setting [8].

On to `c1ccc2cc3c(cc2c1)Nc1cc2ccccc2cc1N3`, for which the T/C runs as follows: under setting [7], 93 % of control; under setting [9], 97 % of control; under setting [8], 93 % of control; under setting [10], 101 % of control; under setting [11], 88 % of control; under setting [12], 103 % of control.

As for `CCc1cccc(CC)c1NC(=O)Nc1cc(Cl)ccc1C`, the T/C runs as follows: (dose: 25.0 mg/kg/injection, schedule: Q04DX003 (ip), vehicle: saline with Tween-80) 94 % of control; (dose: 50.0 mg/kg/injection, schedule: Q04DX003 (ip), vehicle: saline with Tween-80) 105 % of control and 86 % of control; (dose: 100.0 mg/kg/injection, schedule: Q01DX001 (ip), vehicle: saline with Tween-80) 105 % of control; under setting [7], 97 % of control and 111 % of control; under setting [13], 95 % of control and 103 % of control; under setting [9], 87 % of control and 91 % of control. Moreover, the T/C is, setting by setting: (dose: 200.0 mg/kg/injection, schedule: Q01DX001 (ip), vehicle: saline with Tween-80) 90 % of control; under setting [8], 97 % of control and 113 % of control; under setting [14], 103 % of control; under setting [10], 91 % of control; (dose: 400.0 mg/kg/injection, schedule: Q01DX001 (ip), vehicle: saline with Tween-80) 89 % of control; under setting [11], 94 % of control and 97 % of control. Also, the T/C under setting [15] is 98 % of control and 89 % of control; the T/C under setting [12] was 88 % of control.

`CC(=O)Nc1cc(C(=O)Nc2ccc(C3=NCCN3)cc2)ccc1C(=O)Nc1ccc(C2=NCCN2)cc1`: the T/C by setting is: (dose: 7.5 mg/kg/injection, schedule: Q01DX Z (oral), vehicle: saline) 103 % of control; (dose: 15.0 mg/kg/injection, schedule: Q01DX Z (ip), vehicle: saline) 271 % of control; (dose: 15.0 mg/kg/injection, schedule: Q01DX Z (oral), vehicle: saline) 105 % of control; (dose: 30.0 mg/kg/injection, schedule: Q01DX Z (oral), vehicle: saline) 104 % of control; (dose: 60.0 mg/kg/injection, schedule: Q01DX Z (oral), vehicle: saline) 105 % of control; (dose: 62.5 mg/kg/injection, schedule: Q## X009 (oral), vehicle: saline) 97 % of control. The T/C was 90 % of control (dose: 75.0 mg/kg/injection, schedule: Q01DX Z (oral), vehicle: saline); 97 % of control (dose: 125.0 mg/kg/injection, schedule: Q## X009 (oral), vehicle: saline); 86 % of control (dose: 150.0 mg/kg/injection, schedule: Q01DX Z (oral), vehicle: saline); 101 % of control (dose: 500.0 mg/kg/injection, schedule: Q## X009 (oral), vehicle: saline).

Turning to `c1cc2cc3c(cc2cc1CC1NCCc2cc4c(cc21)OCO4)OCO3` (stereo unspecified), the T/C is, setting by setting: under setting [16], 88 % of control; under setting [1], 101 % of control; under setting [2], 100 % of control; under setting [4], 94 % of control.

As to `COC(=O)CCC(NC(=O)C1CCN(C(=O)OCc2ccccc2)CC1)C(=O)OC` (stereo unspecified), the T/C was 99 % of control (dose: 100.0 mg/kg/injection, schedule: Q01DX001 (ip), vehicle: saline); 103 % of control under setting [17]; 95 % of control (dose: 100.0 mg/kg/injection, schedule: Q04DX003 (ip), vehicle: acetone); 100 % of control (dose: 200.0 mg/kg/injection, schedule: Q01DX001 (ip), vehicle: saline); 102 % of control under setting [18]; 98 % of control (dose: 200.0 mg/kg/injection, schedule: Q04DX003 (ip), vehicle: acetone). Further, the T/C is, setting by setting: (dose: 400.0 mg/kg/injection, schedule: Q01DX001 (ip), vehicle: saline) 94 % of control; (dose: 400.0 mg/kg/injection, schedule: Q01DX009 (ip), vehicle: saline) 103 % of control; (dose: 400.0 mg/kg/injection, schedule: Q04DX003 (ip), vehicle: acetone) 98 % of control.

As to `COC(=O)CCNCc1ccccc1`, the T/C is, setting by setting: under setting [1], 103 % of control; under setting [2], 106 % of control; under setting [3], 99 % of control; under setting [4], 98 % of control; under setting [5], 99 % of control; under setting [6], 103 % of control.

Turning to `CC1C(C)(C)P(=O)(NCCOP2(=O)C(C)(C)C(C)C2(C)C)C1(C)C` (stereo unspecified), the T/C runs as follows: (dose: 100.0 mg/kg/injection, schedule: Q04DX003 (ip), vehicle: saline) 100 % of control; (dose: 200.0 mg/kg/injection, schedule: Q04DX003 (ip), vehicle: saline) 92 % of control; (dose: 400.0 mg/kg/injection, schedule: Q04DX003 (ip), vehicle: saline) 96 % of control.

As to `CCCCCCCCCCCCCCCCCCNC(=O)Nc1ccc([N+](=O)[O-])cc1Br`, the T/C runs as follows: under setting [19], 97 % of control; under setting [20], 97 % of control; under setting [21], 90 % of control.

Turning to `COc1cccc(C2NC(=O)CCC2N)c1OC` (stereo unspecified), the T/C is 105 % of control under setting [13], 102 % of control under setting [14] and 97 % of control under setting [15].

With `C=C[CH2][Sn]([Br])([Br])[Br]`, the T/C by setting is: (dose: 50.0 mg/kg/injection, schedule: Q01DX009 (ip), vehicle: saline) 115 % of control; under setting [17], 95 % of control; under setting [18], 86 % of control.

`Cc1cccc(OC(=O)Nc2ccccc2C)c1`: the T/C is 103 % of control under setting [19], 118 % of control under setting [20] and 100 % of control under setting [21].

`CC1(C)OC2C(CO)OC(n3cnc4c(N)ncnc43)C2O1` (stereo unspecified): the T/C is 103 % of control (dose: 25.0 mg/kg/injection, schedule: Q01DX009 (ip), vehicle: Klucel (hydroxypropylcellulose) (HPC)); 98 % of control under setting [16]; 100 % of control under setting [1]; 103 % of control under setting [2]; 103 % of control under setting [4].
